Each structure is given as a SMILES string. Activity calls are given as the source filed them. No cut-off for these calls is given here.

This note sets out measurements from ChEMBL document CHEMBL2331428, “Synthesis of tetrazole analogues of phosphonohydroxamic acids: an attempt to improve the inhibitory activity against the DXR” (Bioorg Med Chem Lett, 2013).

Assay [1] is described as follows: Inhibition of N-terminal His6-tagged Escherichia coli DXR after 2 mins in presence of NADPH.
Assay [2] deals with Escherichia coli. Nature of the assay: Antibacterial activity against Escherichia coli assessed as growth inhibition at 400 nmol by disc diffusion method. Format: functional, organism-based.

On to `O=CN(O)CCCP(=O)(O)O` [FOSMIDOMYCIN], for which, in assay [1], the IC50 was 0.032 µM.

Regarding `CN(O)C(=O)CCc1nnn[nH]1`, the “growth inhibition (GI)” value in assay [2] was “inactive”. Further, the IC50 in assay [1] was 47000 µM.

Turning to `CN(O)C(=O)CCCP(=O)(O)O`, the IC50 in assay [1] was 0.048 µM.

For the molecule `CN(O)C(=O)CCCCc1nnn[nH]1`, in assay [2], the “growth inhibition (GI)” value is “inactive”. Also, the IC50 in assay [1] turned out to be 4900 µM.

With `O=C(CCCCc1nnn[nH]1)NO`, in assay [2], the “growth inhibition (GI)” value was “inactive”. Besides, the IC50 in assay [1] was 44000 µM.

Regarding `CN(O)C(=O)CCCc1nnn[nH]1`, in assay [2], the “growth inhibition (GI)” value is “inactive”. Besides, the IC50 in assay [1] came out at 800 µM.
